Measured values from patent publication US5500444A, “Cardioprotective tocopherol analogs” (Hoechst Marion Roussel, Inc., priority 1994, dated 1996).
Values joined by “and” are separate entries in the source; they are usually repeats but may differ in a detail not shown here. Equal entries are not always repeated. Where two headings read alike, the source gives them in different places. One block for each compound: values may come before it.

Key:
[1] = test system: ligation-induced infarcted and reperfused rats; assay: Cardioprotective effects in ligation-induced infarcted and reperfused rats; type: in vivo; conditions: treated group, 10 mg/kg/h i.v., individual rats No. 1-10
Description: 2-(3,4-Dihydro-2,5,7,8-tetramethyl-6-methylcarbonyloxy-2H-1-benzopyran-2-yl)ethyl-N,N,N-trimethylammonium bromide was evaluated in ligation-induced infarcted and reperfused rats as follows. One of two groups of rats was infused intravenously with a solution of test compound in saline at a rate of 2.3 ml/h (10 mg/kg/h). The control group was infused with saline at the same rate. After 10 min of drug infusion, coronary arteries were ligated surgically for 60 min, ligation was loosened to allow reperfusion for 30 min. The ligation was retied and a dye (Evans Blue) was injected. The animals were sacrificed and the heart ventricles were removed and weighed. The unstained tissue was dissected and weighed; this represents the "area at risk", i.e. the area that was deprived of blood supply by ligation. To determine the infarcted area, the tissue was incubated with 2,3,5-triphenyltetrazolium chloride. Infarcted tissue became light colored and could be dissected and weighed. Thus, for each rat that survived the ligation a measurement of "area at risk" and of "infarcted area" was obtained and the ratio was calculated as given in Tables II and III.

[2] = superoxide radicals generated by xanthine oxidase/xanthine, detected by reduction of nitro blue tetrazolium; type: biochemical; conditions: for superoxide radicals scavenged: at 200 μM; for IC50: read-out: IC50 (superoxide radical scavenging)
Description: In another evaluation, superoxide radicals were generated by 4 mU of xanthine oxidase in the presence of 0.1 mM xanthine and detected by reduction of 40 μM nitro blue tetrazolium to the diformazan dye in a spectrophotometric assay as described by C. Beauchamp and I. Fridovich, (1971) Analyt. Biochem. 44, 276-287. 30 U of superoxide dismutase inhibited this reduction by 90% which, therefore, was due to superoxide radicals. […] Trolox is a commercial antioxidant and is a known potent superoxide radical scavenger. For comparison, D,L-penicillamine and N-2-mercaptopropionyl glycine at 200 μM scavenged only 14% of the superoxide radicals. Neither of the scavengers inhibited xanthine oxidase, when tested at 200 μM.

[3] = test system: canine myocardial reperfusion injury; conditions: Lucchesi and coworkers; cited from earlier work
[4] = autoxidation of 1-epinephrine (superoxide radical reduction, Misra and Fridovich); type: biochemical; conditions: 1-epinephrine 1×10^-4 M, EDTA 1×10^-4 M, 30° C.; read-out: 50% inhibition of the autoxidation rate (ID50)
Description: 2-(3,4-dihydro-6-hydroxy-2,5,7,8-tetramethyl-2H-1-benzopyran-2-yl)ethyl-N,N,N-trimethylammonium bromide, described in Example 1, was evaluated for its ability to reduce superoxide radicals in an assay described by H. P. Misra and J. Fridovich, 1972, J. Biol. Chem. 247, 3170-5. In this assay, the rate of autoxidation of 1-epinephrine (1×10^-4 M) in the presence of EDTA (1×10^-4 M) at 30° C. is followed spectrophotometrically following the increase of absorbance at 480 mn.
Misra and Fridovich report that bovine superoxide dismutase gave 50% inhibition at 46mg per ml.

human α1 Pi = assay: Protection of α1 Pi from leukocyte-mediated inactivation (residual elastase inhibitory capacity); type: cell-based; conditions: for Relative PC50: concentration to protect 50% of elastase inhibitory capacity of α1 Pi, mean ± S.D. (n = 3) for Compound A; for inactivation of α1 Pi: zymosan-stimulated human leukocytes
Description: Stimulated human leukocytes release radicals and other oxygen metabolites, which, during inflammation, act as microbicidal agents. At the same time, they release proteolytic enzymes, such as elastase, which are also microbicidal but potentially threaten the connective tissue of the host. An endogenous α1 -proteinase inhibitor (α1 Pi) normally protects the host tissue from proteolytic digestion. α1 Pi is, however, inactivated by the leukocyte-derived oxidants. The inactivation of α1 Pi is antagonized by the disclosed radical scavengers 2-(3,4-dihydro-6-hydroxy-2,5,7,8-tetramethyl-2H-1-benzopyran-2-yl)-N,N,N-trimethylethanammonium, 4-methylbenzylsulfonate (Compound A) and 3,4-dihydro-2-(2-dimethylaminoethyl)-2,5,7,8-tetramethyl-2H-1-benzopyran-6-ol (Compound B). The concentration needed to protect 50% of the elastase inhibitory capacity of α1 Pi (PC50) depends on the amount of stimulated leukocytes present.
The procedure described by Skosey and Chow was followed (see Skosey, J. L. and Chow, D. C. (1985) In Handbook of Methods for Oxygen Radical Research (Greenwald, R. A., ed.) pp. 413-416, CRC Press, Boca Raton). In short, human α1 Pi was incubated with zymosan-stimulated human peripheral-blood leukocytes in the absence or presence of the scavengers. The amount of α1 Pi protected from oxidative inactivation was determined by its residual elastase inhibitory capacity.

hyperlipidemic rabbits = conditions: Carew et al., 1987; cited from earlier work
[5] = oral absorption and excretion; type: in vivo
β2 -receptors = conditions: infarcted reperfused heart, rats; Lukovic et al., 1992; cited from earlier work
[6] = test system: rats subjected to myocardial ischemia and reperfusion; conditions: Lukovic et al., 1992; cited from earlier work
[7] = Affinity for cardiac tissue (radioactivity in heart and blood after intravenous 14C-labelled compound); type: in vivo, rats; conditions: rat, 0.91 mg base/kg i.v.
Description: Following the procedure described in Example 9, but using ^14 C-methyl p-toluenesulfonate in place of "cold material", ^14 C-labelled 2-(3,4-dihydro-2,5,7,8-tetramethyl-6-methylcarbonyloxy-2H-1-benzopyranan-2-yl)ethyl-N,N,N-tri-^14 C-methylammonium p-toluenesulfonate was synthesized. The preparation was diluted with "cold material" to 11.74 μCi/mg base.
24 rats were given 0.91 mg base/kg by intravenous route (by canula into the jugular vein). The animals were sacrificed in groups of 3 at the time periods indicated in Table I. Immediately before sacrifice a 0.5 ml blood sample was taken from an indwelling catheter in the carotid artery. The hearts were removed, blotted and weighed. The samples of tissue and blood were solubiized with Luma Solve (a quaternary ammonium hydroxide preparation) and radioactivity was determined in a scintillation counter.

[8] = 4 mU xanthine oxidase, 0.1 mM xanthine, 40 μM nitro blue tetrazolium

affinity for heart tissue [7]: marked affinity for heart tissue
Ratio heart/blood ([7]; 5 min): 3.05 ± 1.46
µg equiv/g ([7]; 5 min): 1.59 ± 0.22 µg equiv/g
µg equiv/mL ([7]; 5 min): 0.434 ± 0.351 µg equiv/mL
Ratio heart/blood ([7]; 15 min): 6.90 ± 8.34
µg equiv/g ([7]; 15 min): 1.73 ± 0.422 µg equiv/g
µg equiv/mL ([7]; 15 min): 0.59 ± 0.295 µg equiv/mL
Ratio heart/blood ([7]; 30 min): 17.33 ± 5.42
µg equiv/g ([7]; 30 min): 1.91 ± 0.278 µg equiv/g
µg equiv/mL ([7]; 30 min): 0.124 ± 0.032 µg equiv/mL
Ratio heart/blood ([7]; 1 hour): 20.09 ± 2.54
µg equiv/g ([7]; 1 hour): 2.09 ± 0.406 µg equiv/g
µg equiv/mL ([7]; 1 hour): 0.096 ± 0.008 µg equiv/mL
Ratio heart/blood ([7]; 2 hours): 21.90 ± 3.56
µg equiv/g ([7]; 2 hours): 1.4 ± 0.042 µg equiv/g
µg equiv/mL ([7]; 2 hours): 0.086 ± 0.041 µg equiv/mL
µg equiv/g ([7]; 4 hours): 1.25 ± 0.248 µg equiv/g
µg equiv/mL ([7]; 4 hours): 0.054 ± 0.013 µg equiv/mL
Ratio heart/blood ([7]; 4 hours (maximum), p-toluenesulfonate, 0.91 mg/kg, 240 min): 27.15 ± 4.30 and 27.15
Ratio heart/blood ([7]; 6 hours): 18.62 ± 2.77
µg equiv/g ([7]; 6 hours): 0.863 ± 0.067 µg equiv/g
µg equiv/mL ([7]; 6 hours): 0.048 ± 0.007 µg equiv/mL
Ratio heart/blood ([7]; 8 hours): 15.12 ± 2.69
µg equiv/g ([7]; 8 hours): 0.652 ± 0.116 µg equiv/g
µg equiv/mL ([7]; 8 hours): 0.048 ± 0.012 µg equiv/mL
concentration of drug in heart tissue ([7]; after 8 h): 0.65 μg equiv/g
Compound: CC(=O)Oc1c(C)c(C)c2c(c1C)CCC(C)(CC[N+](C)(C)C)O2.Cc1ccc(S(=O)(=O)[O-])cc1 (centres unmarked) [Example 9, 2-(3,4-Dihydro-2,5,7,8-tetramethyl-6-methylcarbonyloxy-2H-1-benzopyran-2-yl)ethyl-N,N,N-trimethylammonium p-toluenesulfonate]

IC50 [2, 8]: 28 µM
inactivation of α1 Pi (human α1 Pi): antagonized
Compound: Cc1c(C)c2c(c(C)c1O)CCC(C)(CCN(C)C)O2 (centres unmarked) [Compound B, 3,4-dihydro-2-(2-dimethylaminoethyl)-2,5,7,8-tetramethyl-2H-1-benzopyran-6-ol]
Relative PC50 (human α1 Pi): 7.3 μM/μg leukocyte protein

inhibition of nitro blue tetrazolium reduction ([2]; 30 U superoxide dismutase, 4 mU xanthine oxidase, 0.1 mM xanthine, 40 μM nitro blue tetrazolium): 90%
Compound: superoxide dismutase
canine myocardial reperfusion injury [3]: reduce canine myocardial reperfusion injury

The next lines start with the compound.

Compound: CC(=O)Oc1c(C)c(C)c2c(c1C)CCC(C)(CC[N+](C)(C)C)O2.[Br-] (centres unmarked) [Example 2, 2-(3,4-Dihydro-2,5,7,8-tetramethyl-6-methylcarbonyloxy-2H-1-benzopyran-2-yl)ethyl-N,N,N-trimethylammonium bromide]
Tissue at risk [1]: 307 mg and 255 mg and 176 mg and 381 mg and 310 mg and 207 mg and 395 mg and 229 mg and 50 mg and 285 mg

Compound: CC(S)C(=O)NCC(=O)O (centres unmarked) [N-2-mercaptopropionyl glycine, reference compound]
superoxide radicals scavenged [2]: 14%
canine myocardial reperfusion injury [3]: reduce canine myocardial reperfusion injury

Compound: Cc1c(C)c2c(c(C)c1O)CCC(C)(C(=O)O)O2 (centres unmarked) [Trolox, 3,4dihydro-6-hydroxy-2,5,7,8-tetramethyl-2H-1-benzopyrane-2-carboxylic acid, reference compound]
IC50 [4]: 105 ± 8 µM
IC50 [2, 8]: 28 µM
protection of α1 Pi (Relative PC50 column) (human α1 Pi; at 1 mM): Inactive at 1 mM

Compound: Cc1c(C)c2c(c(C)c1O)CCC(C)(CC[N+](C)(C)C)O2 (racemic) [Example 1, 2-(3,4-Dihydro-6-hydroxy-2,5,7,8-tetramethyl-2H-1-benzopyran-2-yl)ethyl-N,N,N-trimethylammonium bromide]
IC50 [4]: 138 ± 14 µM

Compound: CC(C)(Sc1cc(C(C)(C)C)c(O)c(C(C)(C)C)c1)Sc1cc(C(C)(C)C)c(O)c(C(C)(C)C)c1 [probucol]
anti-atherosclerotic effect (hyperlipidemic rabbits): marked anti-atherosclerotic effect

Compound: Cc1c(C)c2c(c(C)c1O)CCC(C)(CC[N+](C)(C)C)O2 (centres unmarked) [Compound A, 3,4-Dihydro-6-hydroxy-N,,N,N,2,5,7,8-heptamethyl-2H-1-benzopyran-2-ethanaminium 4-methylbenzenesulfonate]
IC50 [2, 8]: 28 µM
Relative PC50 (human α1 Pi): 4.5 ± 1 μM/μg leukocyte protein
inactivation of α1 Pi (human α1 Pi): antagonized
oral absorption [5]: not or ally absorbed
recovery in the feces [5]: found unchanged in the feces
oral absorption ([5]; listed as Example 11): not orally absorbed
density of β2 -receptors (β2 -receptors): further increased the density of β2 -receptors
cardiac output [6]: enhanced
contractility [6]: enhanced

Compound: CC(C)(S)C(N)C(=O)O (racemic) [D,L-penicillamine, reference compound]
IC50 [4]: 73 µM
superoxide radicals scavenged [2]: 14%
